From US12552758B2, “Inhibitors of MLH1 and/or PMS2 for cancer treatment” (NeoPhore Limited, priority 2020, dated 2026)

Tests used:
[1] = target: T1, recombinant N-terminal MLH1 (residues 15-340) (Homo sapiens (Human), UniProt P40692); assay: Fluorescence polarisation assay for MLH1 (protocol for Examples 64, 76, 90 and 95); conditions: FP probe displacement, 100 nM N-terminal MLH1, 5 nM probe compound, non-binding surface plate, read immediately
Method: Fluorescence Polarisation Assay for MLH1 (Protocol for Examples 64, 76, 90 and 95)
Test compounds, as 10 mM DMSO stocks, were dispensed into a 384-well Low Flange Black Flat Bottom Polystyrene Non-binding Surface plate (Corning®, item number 3575) using a Labcyte Echo acoustic liquid handler. Test compounds were added to wells in columns 1-22 whilst DMSO was added to wells in columns 23 and 24 in order to normalise the plate. 20 μL of a 2× solution (200 nM) of recombinant N-terminal MLH1 (residues 15-340) in assay buffer (25 mM HEPES, pH 7.5, 250 mM NaCl, 10 mM MgCl2, 0.01% Triton X-100, 5 mM dithiothreitol) was added to all wells in columns 1-23 and 20 μL assay buffer was added to all wells in column 24 using an E1-ClipTip pipette (ThermoFisher). Plates were centrifuged for 1 minute at 250×g and were incubated at room temperature for 30 minutes prior to the addition of 20 μL of 2×(10 nM) 5-((5-(4-((2-(2,4-dihydroxy-5-isopropylbenzoyl)isoindolin-5-yl)methyl)piperazin-1-yl)pentyl)carbamoyl)-2-(6-(dimethylamino)-3-(dimethyliminio)-3H-xanthen-9-yl)benzoate in assay buffer (prepared from a 1 mM DMSO stock) with an E1-ClipTip pipette (ThermoFisher). The final concentration of N-terminal MLH1 was 100 nM and the final concentration of the probe compound was 5 nM. Compound plates were centrifuged for 1 minute at 250 xg for 1 minute and immediately read on a PheraStar FSX (fitted with 384-well aperture spoon and 590 675 675 FP optic module). The gain and focus were adjusted before each plate was read so that the polarisation of a no enzyme control (column 24) was equal to 35 mP. Data were normalised against the no inhibitor controls (column 23) and no enzyme controls (column 24).

[2] = target: recombinant N-terminal PMS2 (residues 1-365) (Homo sapiens (Human), UniProt P54278); assay: Fluorescence polarisation assay for PMS2; type: binding; conditions: FP probe displacement; 10 nM N-terminal PMS2, 5 nM probe compound, read after 1 hour
In short: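 Competitive fluorescence polarisation with 10 nM N-terminal PMS2 and 5 nM final rhodamine-labelled resorcinol probe. Compound is pre-incubated with protein 30 min at room temperature, then probe added and read after 1 h. Values are normalised to no-inhibitor and no-enzyme controls.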

[3] = target: T1, recombinant N-terminal MLH1 (residues 15-340); assay: Fluorescence polarisation assay for MLH1 (protocol for all Examples except Examples 64, 76, 90 and 95); type: binding; conditions: FP probe displacement; 100 nM N-terminal MLH1, 5 nM probe compound, read after 15 minutes; all Examples except 64, 76, 90 and 95
In short: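 N-terminal MLH1 (100 nM final) preincubated with compounds 30 min at room temperature, then rhodamine-labelled resorcinol probe added (5 nM final); fluorescence polarisation read after 15 min. Signal normalised to no-inhibitor and no-enzyme controls; serial dilutions for potency, single concentration for screening.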

T1 sequence (P40692 15-340): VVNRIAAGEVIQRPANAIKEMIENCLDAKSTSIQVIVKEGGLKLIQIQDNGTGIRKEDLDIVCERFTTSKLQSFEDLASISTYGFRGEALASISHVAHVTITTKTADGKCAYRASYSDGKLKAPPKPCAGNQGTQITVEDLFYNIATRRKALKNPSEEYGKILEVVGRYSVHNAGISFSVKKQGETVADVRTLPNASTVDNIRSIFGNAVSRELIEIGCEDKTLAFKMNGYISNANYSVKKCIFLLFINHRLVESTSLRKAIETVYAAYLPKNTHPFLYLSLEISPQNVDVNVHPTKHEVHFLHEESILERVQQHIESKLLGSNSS
recombinant N-terminal PMS2 (residues 1-365), sequence (P54278 1-365): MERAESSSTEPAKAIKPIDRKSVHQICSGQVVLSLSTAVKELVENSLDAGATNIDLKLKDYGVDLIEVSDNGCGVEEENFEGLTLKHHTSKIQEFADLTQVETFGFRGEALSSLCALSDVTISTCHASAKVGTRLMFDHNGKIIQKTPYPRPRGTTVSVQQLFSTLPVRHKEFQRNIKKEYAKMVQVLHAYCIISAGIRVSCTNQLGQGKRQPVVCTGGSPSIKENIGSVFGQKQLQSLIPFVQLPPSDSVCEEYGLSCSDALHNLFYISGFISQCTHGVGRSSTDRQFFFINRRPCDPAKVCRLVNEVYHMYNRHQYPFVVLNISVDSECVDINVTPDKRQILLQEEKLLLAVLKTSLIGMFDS

| SMILES | IC50 [1] [µM] | IC50 [2] [µM] | IC50 [3] [µM] |
| --- | --- | --- | --- |
| Cc1c(O)cc(O)c(C(=O)N2Cc3cccc(CN4CCOCC4)c3C2)c1OCc1ccccc1 [Example 76, (2-(Benzyloxy)-4,6-dihydroxy-3-methylphenyl)(4-(morpholinomethyl)isoindolin-2-yl)methanone] | > 10 | 1 to 10 | – |
| Cc1c(O)cc(O)c(C(=O)N2Cc3cccc(NC4COC4)c3C2)c1OCc1ccccc1 [Example 80, (2-(Benzyloxy)-4,6-dihydroxy-3-methylphenyl)(4-(oxetan-3-ylamino)isoindolin-2-yl)methanone] | – | < 1 | 1 to 10 |
| Cc1c(O)cc(O)c(C(=O)N2Cc3cccc(N4CCCC(O)C4)c3C2)c1OCc1ccccc1 (stereo not drawn) [Example 81, (2-(Benzyloxy)-4,6-dihydroxy-3-methylphenyl)(4-(3-hydroxypiperidin-1-yl)isoindolin-2-yl)methanone] | – | < 1 | > 10 |
| CNC(=O)c1ccc2c(c1)CN(C(=O)c1c(O)cc(O)c(C)c1OCc1ccccc1)C2 [Example 84, 2-(2-(Benzyloxy)-4,6-dihydroxy-3-methylbenzoyl)-N-methylisoindoline-5-carboxamide] | – | < 1 | > 10 |
| CC(=O)Nc1cccc2c1CN(C(=O)c1c(O)cc(O)c(C)c1OCc1ccccc1)C2 [Example 87, N-(2-(2-(benzyloxy)-4,6-dihydroxy-3-methylbenzoyl)isoindolin-4-yl)acetamide] | – | < 1 | > 10 |
| Cc1c(O)cc(O)c(C(=O)N2Cc3cccc(OC4CCOC4)c3C2)c1OCc1ccccc1 (stereo not drawn) [Example 88] | – | < 1 | > 10 |
| Cc1c(O)cc(O)c(C(=O)N2Cc3cccc(OCC4CNC4)c3C2)c1OCc1ccccc1 [Example 89, (4-(Azetidin-3-yl methoxy)isoindolin-2-yl) (2-(benzyloxy)-4,6-dihydroxy-3-methylphenyl) methanone] | – | < 1 | > 10 |
| Cc1c(O)cc(O)c(C(=O)N2Cc3cccc(OCc4cncnc4)c3C2)c1OCc1ccccc1 [Example 90, (2-(Benzyloxy)-4,6-dihydroxy-3-methylphenyl)(4-(pyrimidin-5-ylmethoxy)isoindolin-2-yl)methanone] | > 10 | < 1 | – |
| Cc1c(O)cc(O)c(C(=O)N2Cc3cccc(N4CC(C#N)C4)c3C2)c1OCc1ccccc1 [Example 91, 1-(2-(2-(Benzyloxy)-4,6-dihydroxy-3-methylbenzoyl)isoindolin-4-yl)azetidine-3-carbonitrile] | – | < 1 | > 10 |
| CCOc1c(C)c(O)cc(O)c1C(=O)N1Cc2ccc(CN3CCN(C)CC3)cc2C1 [Example 93, (2-Ethoxy-4,6-dihydroxy-3-methylphenyl)(5-((4-methylpiperazin-1-yl)methyl)isoindolin-2-yl)methanone] | – | < 1 | > 10 |

Second part, the compound after the results:

| IC50 [1] [µM] | IC50 [2] [µM] | IC50 [3] [µM] | SMILES |
| --- | --- | --- | --- |
| > 10 | 1 to 10 | – | Cc1c(O)cc(O)c(C(=O)N2Cc3ccccc3C[C@@H]2CO)c1OCc1ccccc1 [Example 64, (R)-(2-(benzyloxy)-4,6-dihydroxy-3-methylphenyl)(3-(hydroxymethyl)-3,4-dihydroisoquinolin-2(1H)-yl)methanone] |
| – | < 1 | > 10 | Cc1c(O)cc(O)c(C(=O)N2Cc3cccc(C#N)c3C2)c1OCc1ccccc1 [Example 82, 2-(2-(benzyloxy)-4,6-dihydroxy-3-methylbenzoyl)isoindoline-4-carbonitrile] |
| – | < 1 | > 10 | Cc1c(O)cc(O)c(C(=O)N2Cc3ccc(C(=O)N(C)C)cc3C2)c1OCc1ccccc1 [Example 83, 2-(2-(Benzyloxy)-4,6-dihydroxy-3-methylbenzoyl)-N,N-dimethylisoindoline-5-carboxamide] |
| – | < 1 | > 10 | Cc1c(O)cc(O)c(C(=O)N2Cc3cccc(C(=O)N(C)C)c3C2)c1OCc1ccccc1 [Example 85, 2-(2-(Benzyloxy)-4,6-dihydroxy-3-methylbenzoyl)-N,N-dimethylisoindoline-4-carboxamide] |
| – | 1 to 10 | > 10 | CNC(=O)c1cccc2c1CN(C(=O)c1c(O)cc(O)c(C)c1OCc1ccccc1)C2 [Example 86, 2-(2-(benzyloxy)-4,6-dihydroxy-3-methylbenzoyl)-N-methylisoindoline-4-carboxamide] |
| – | < 1 | > 10 | COc1c(C)c(O)cc(O)c1C(=O)N1Cc2ccc(CN3CCN(C)CC3)cc2C1 [Example 92, (4,6-Dihydroxy-2-methoxy-3-methylphenyl)(5-((4-methylpiperazin-1-yl)methyl)isoindolin-2-yl)methanone] |
| – | < 1 | > 10 | Cc1c(O)cc(O)c(C(=O)N2Cc3ccc(CN4CCN(C)CC4)cc3C2)c1OCC1CCCCC1 [Example 94, (2-(Cyclohexylmethoxy)-4,6-dihydroxy-3-methylphenyl)(5-((4-methylpiperazin-1-yl)methyl)isoindolin-2-yl)methanone] |
| > 10 | < 1 | – | Cc1c(O)cc(O)c(C(=O)N2Cc3ccc(CN4CCN(C)CC4)cc3C2)c1OCC1CC1 [Example 95, (2-(Cyclopropylmethoxy)-4,6-dihydroxy-3-methylphenyl)(5-((4-methylpiperazin-1-yl)methyl)isoindolin-2-yl)methanone] |
